The source of these data is US5527785A, “Selectin receptor modulating compositions” (The Regents of the University of California, priority 1993, dated 1996).

In assay [1] the target is L-selectin-Ig. Put plainly: Competition ELISA, L-selectin-Ig binding to BSA-sLe^x. As to conditions: for inhibition of L-selectin-Ig binding to BSA-sLe^x (in words): competitive ELISA, FIG. 8.
Assay [2] has as its system E-selectin-Ig. In words: Competition ELISA, E-selectin-Ig binding to BSA-sLe^x. The procedure:
(§1) Briefly, microtiter plates were coated with neoglycoprotein BSA-sLe^x, BSA-sLe^a, (Chembiomed, Alberta, CAN) or unconjugated BSA (0.11 μg/well) in 50 mM carbonate bicarbonate buffer, pH 9.5. Plates were blocked with 20 mg/ml BSA in ELISA buffer (150 mM NaCl, 20 mM HEPES, 2 mM CaCl2, 0.25 mM thimerosal, pH 7.4). E- and P-selectin-Ig fusion proteins (20 nM) were coincubated in the coated, blocked microtiter wells with serially diluted heparin fragments (typically 0-1000 μg/ml) in ELISA buffer containing 10 mg/ml BSA for three hours at room temperature. […] Color development was stopped in the linear range (typically after 4-16 minutes) using 5 μl 4 NH2 SO4, and endpoint optical density measured at 490 nm.

Assay [3] relates to P-selectin. As to conditions: Larsen, et al.; cited from earlier work.
The target of assay [4] is P-selectin-Ig. In words: Competition ELISA, P-selectin-Ig binding to BSA-sLe^x. As to conditions: Table 1, P-selectin; approximate IC50 values. The procedure:
as §1

Assay [5] deals with L-selectin-Ig. As to conditions: Table 1, L-selectin; footnote: Foxall, et al., supra; cited from earlier work.
The subject of assay [6] is L-selectin-Ig. As to conditions: 5 mM; cited from earlier work.
Assay [7] relates to L-selectin-Ig. As to conditions: 11 mM; cited from earlier work.
Assay [8] has as its system P-selectin. Put plainly: HL60 cell adhesion to COS cells transfected with P-selectin cDNA. In kind it is cell-based. To be noted: at the concentrations tested in these adhesion assays (HL60 and PMN to selectin-transfected COS).
Protocol: COS cells were grown on coverslips in Dulbecco's minimal essential media with 10% fetal calf serum. After 72 hours, polysaccharides were added to the COS cell cultures to achieve final concentrations of 0, 0.1, 1.0, 10.0, 100.0 or 1000.0 μg/ml. Polysaccharides included crude heparin, dermatan sulfate, heparin tetrasaccharide, and heparin hexasaccharide. HL60 cells, a leukocytic cell line, were added to the COS cell cultures 30 minutes after the polysaccharides were added and incubated for 30 minutes. The coverslips were then washed with media to remove unbound cells and COS cells with three or more HL60 cells bound (rosettes) were counted using phase contrast microscopy.
Briefly, subconfluent monolayers were incubated at 37° C. for 2.5 hours with Dulbecco's modified Eagle's medium (DMEM) with 10% NuSerum (Collaborative Research, Bedford, Mass.) containing 10 μg cDNA, 400 μg/mL DEAE-dextran (Sigma), and 100 μM chloroquine diphosphate (Sigma). […] HL60 cell adhesion was quantitated as number of HL60 rosettes (2 or more cells bound) per 100 transfected COS cells. Number of transfected COS was determined using mAbs specific for E-, P-, and L-selectin (see below) followed by secondary reaction with a fluorescein-conjugated anti-immunoglobulin antibody (Cappel, Durham, N.C.). […]
Assay [9] concerns P-selectin-Ig. Put plainly: LS180 colon cancer cell adhesion to immobilized P-selectin-Ig. In kind it is cell-based. As to conditions: FIG. 5. The procedure: (§2) The colon carcinoma cell line, LS180, is a useful model for studying selectin-dependent adhesion since it binds to all three selectins. E-, P-, and L-selectin-Ig were immobilized on microwell (Terasaki) plates coated with protein A. Five μl of buffer containing crude heparin, di-, tetra- or hexasaccharide heparin fragments or antibody (as described above) was incubated for 20 minutes at 4° C. Five μl containing 5000 LS180 cells was added for 30 minutes at 4° C. to allow adhesion to occur. The wells were then washed, fixed with glutaraldehyde, and the bound cells counted by microscopic observation.

Assay [10] concerns L-selectin-Ig. Put plainly: LS180 colon cancer cell adhesion to immobilized L-selectin-Ig. The format is cell-based. To be noted: FIG. 5. The procedure:
as §2

Assay [11] has as its system E-selectin-Ig. In words: LS180 colon cancer cell adhesion to immobilized E-selectin-Ig. To be noted: FIG. 5. In kind it is cell-based. The procedure: as §2

Take `O=C(O)C1=C[C@H](O)[C@@H](OS(=O)(=O)O)[C@H](O[C@H]2[C@H](O)[C@@H](NS(=O)(=O)O)[C@@H](O[C@H]3[C@H](O)[C@@H](OS(=O)(=O)O)[C@H](O[C@H]4[C@H](O)[C@@H](NS(=O)(=O)O)C(O)O[C@@H]4COS(=O)(=O)O)O[C@H]3C(=O)O)O[C@@H]2COS(=O)(=O)O)O1` (some centres unmarked) [F4, ΔUA2Sα1-4DGIcNS6Sα1-4LIdoA2Sα1-4DGIcNS6S]: the “IC50, inhibition of L-selectin-Ig” value at L-selectin-Ig [1] (competition ELISA, FIG. 12) is 61 µg/mL. At L-selectin-Ig [1] (competition ELISA, FIG. 12, read-out: IC50, inhibition of L-selectin-Ig), the IC50 amounted to 46 µM. In addition, in the assay with L-selectin-Ig [1] (competition ELISA, L-selectin-Ig), the “activity relative to the size fractionated tetrasaccharide mixture” value is given as 2-4 fold. Besides, the “activity against L-selectin relative to sLe^x in non-cellular assays” value with L-selectin-Ig [1] (non-cellular assays, F4 vs sLe^x) is given as “over 100 fold”. The “activity against E-selectin-Ig (in words)” value in the assay with E-selectin-Ig [2] (concentrations up to 1 mM) is “no activity”.
With `CC(=O)N[C@H]1[C@H](O[C@H]2[C@@H](O)[C@@H](CO)O[C@@H](O[C@H]3[C@H](O)[C@@H](O)C(O)O[C@@H]3CO)[C@@H]2O)O[C@H](CO)[C@@H](O[C@@H]2O[C@H](CO)[C@H](O)[C@H](O)[C@H]2O)[C@@H]1O[C@@H]1O[C@@H](C)[C@@H](O)[C@@H](O)[C@@H]1O` (some centres unmarked) [LNF-III], the “P-selectin-dependent rosetting of activated platelets to leukocytes (in words)” value in the assay on P-selectin [3] is given as “blocked”.
`CC(=O)NC1C(O)CC(OC2C(O)C(CO)OC(OC3C(CO)OC(O)C(NC(C)=O)C3OC3OC(C)C(O)C(O)C3O)C2O)(C(=O)O)OC1C(O)C(O)CO` (centres unmarked) [sLex, Neu5Acα2-3Galβ1-4(Fucα1-3)GIcNAc, reference compound]: in the assay with L-selectin-Ig [1] (concentrations of up to 1 mM), the “activity against L-selectin-Ig binding (in words)” value was “no measurable activity”. Moreover, on P-selectin-Ig [4], the “IC50, inhibition of P-selectin-Ig binding to BSA-sLe^x” value was greater than 1000 µg/mL. For the same compound, the IC50 on E-selectin-Ig [2] (read-out: IC50, E-selectin-Ig binding to immobilized BSA-sLe^x) was found to be 510 ± 60 µM. Moreover, at L-selectin-Ig [5], the “IC50, inhibition of L-selectin-Ig binding” value was 4100 µg/mL. Moreover, the “block of L-selectin-Ig binding to immobilized sLe^x glycolipid” value in the assay on L-selectin-Ig [6] is recorded as “approximately 50%”. Besides, the “block of L-selectin-Ig binding to glycam-1” value in the assay on L-selectin-Ig [7] is reported as “approximately 60%”.
`O=C(O)C1=C[C@H](O)[C@@H](OS(=O)(=O)O)[C@H](O[C@H]2[C@H](O)[C@@H](NS(=O)(=O)O)C(O)O[C@@H]2COS(=O)(=O)O)O1` (some centres unmarked) [Di, UA2Sα1-4GIcNS6S]: the “blocking activity in the COS cell adhesion assays (in words)” value in the assay with P-selectin [8] is reported as “little blocking activity”. The “adhesion of LS180 cells to plates coated with P-selectin-Ig (in words)” value in the assay with P-selectin-Ig [9] was “no effect”. Besides, the “adhesion of LS180 cells to plates coated with L-selectin-Ig (in words)” value with L-selectin-Ig [10] is recorded as “no effect”. In the assay on E-selectin-Ig [11], the “adhesion of LS180 cells to plates coated with E-selectin-Ig (in words)” value is listed as “no effect”. For the same compound, on L-selectin-Ig [1] (Table 1, L-selectin, approximate IC50 values), the “IC50, inhibition of L-selectin-Ig binding to BSA-sLe^x” value is greater than 1000 µg/mL. Besides, the “inhibition of L-selectin-Ig binding to BSA-sLe^x (in words)” value with L-selectin-Ig [1] (listed as tris-sulfated heparin disaccharide) is reported as “some inhibition”; in the assay with L-selectin-Ig [1] (listed as trisulfated disaccharide fragment of heparin), “somewhat effective”. Further, the “IC50, inhibition of P-selectin-Ig binding to BSA-sLe^x” value at P-selectin-Ig [4] was greater than 1000 µg/mL.
